From patent US20150259344A1, “IMIDAZOLE DERIVATIVE” (DAINIPPON SUMITOMO PHARMA CO., LTD., priority 2012, published 2015)

target: T1, human α7 nAChR (Homo sapiens, UniProt P36544); test: Evaluation of PAM activity with human α7 nACh receptor stably expressing cells (aequorin luminescence, FDSS7000); type: cell-based; details: 1 μM test compound (values marked *, footnote of Table 25); ACh at EC20; ratio of RLU (Max-Min) to control wells; read-out: α7PAM (%) @1 μM
T1 construct: expressed in transfected cells
T1 sequence (P36544 23-502): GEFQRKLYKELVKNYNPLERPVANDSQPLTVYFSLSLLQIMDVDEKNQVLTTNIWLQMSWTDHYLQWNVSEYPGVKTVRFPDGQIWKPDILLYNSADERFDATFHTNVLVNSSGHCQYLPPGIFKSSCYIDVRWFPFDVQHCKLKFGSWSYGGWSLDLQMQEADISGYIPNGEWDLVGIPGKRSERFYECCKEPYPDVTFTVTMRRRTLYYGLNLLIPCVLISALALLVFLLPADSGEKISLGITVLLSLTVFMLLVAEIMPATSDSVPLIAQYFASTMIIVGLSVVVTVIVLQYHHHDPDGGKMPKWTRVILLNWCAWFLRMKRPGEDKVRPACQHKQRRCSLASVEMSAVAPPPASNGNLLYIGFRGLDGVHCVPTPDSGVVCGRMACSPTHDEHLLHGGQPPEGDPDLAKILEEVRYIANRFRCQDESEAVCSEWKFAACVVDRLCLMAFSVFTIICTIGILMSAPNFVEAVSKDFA
Description: Evaluation of PAM activity with human α7 nACh receptor stably expressing cells
(1) Human α7 nAChR stably expressing cells
Human α7 nAChR stably expressing cells were generated and cultured.
Thus, the cells were subcultured.
Seven days after subculturing, the cells were treated with TrypLE Express to collect them when they were about 80% confluent.
On the next day after seeding, Viviren (cat#E649X, Promega, Madison, Wis., USA) was added to the medium so that the final concentration could be 4 μM (15 μL/well). The plates were centrifuged and then placed in the dark for 4 hours at room temperature.
(2) Preparation of the Test Samples
Each of the test compounds was dissolved in DMSO to prepare each test sample at a concentration of 1000-fold the final concentration. To the solution was added Hanks/20 mM HEPES/0.2% BSA (cat#A3803, Sigma, St. Louis, Mo., USA), and the concentration was adjusted to 6-fold the final concentration.
(3) Evaluation of PAM Activity
FDSS7000 (Hamamatsu Photonics) was used to detect the luminescence signal evoked by α7 nAChR stimulation. The cells and a luminescent substrate were put on a plate, and the test sample was added thereto. […] The ratio of the RLU (Max-Min) of the test-compound-containing wells to that of the control wells was defined as PAM activity.

In order of rising activity at 1 µM:
1. COC1CCC(NC(=O)N2CCC(n3cnc(-c4ccc(F)cc4)c3)CC2)CC1 (stereo not drawn) [Example 33]  126%
2. O=C(NC1CCOCC1)[C@H]1CC[C@@H](n2cnc(-c3cccc(F)c3F)c2)CC1 [Example 358]  126%
3. CC(C)(F)C(=O)N[C@H]1CC[C@@H](n2cnc(-c3cc(Cl)c(F)cc3F)c2)CC1 [Example 318]  179%
4. O=C(NC1CCC(F)(F)CC1)N1[C@@H]2CC[C@H]1C[C@@H](n1cnc(-c3cc(F)ccc3F)c1)C2 [Example 388]  335%
5. CC(C)(F)C(=O)N[C@H]1CC[C@@H](n2cnc(-c3cc(F)c(F)cc3Cl)c2)CC1 [Example 317]  345%
6. CC(C)(F)C(=O)N[C@H]1CC[C@@H](n2cnc(-c3cc(F)cc(F)c3)c2C#N)CC1 [Example 343]  380%
7. O=C(N[C@H]1CC[C@@H](n2cnc(-c3cccc(F)c3)c2Cl)CC1)C1CCCC1 [Example 177]  389%
8. CC(C)(F)C(=O)N[C@H]1CC[C@@H](n2cnc(-c3ccccc3OC(F)(F)F)c2Cl)CC1 [Example 331]  467%
9. N#Cc1c(-c2cc(F)ccc2F)ncn1[C@H]1C[C@H]2CC[C@@H](C1)N2C(=O)NC1CCC(F)(F)CC1 [Example 403]  590%
10. O=C(N[C@H]1CC[C@@H](n2cnc(-c3ccc(F)cc3)c2Cl)CC1)C1CCCC1 [Example 182]  682%

same assay, conditions: 10 μM test compound; ACh at EC20; ratio of RLU (Max-Min) to control wells; read-out: α7PAM (%) @10 μM

In order of rising activity at 10 µM:
1. O=C(C1CCC(F)(F)CC1)N1[C@@H]2CC[C@H]1C[C@H](n1cnc(-c3cccc(F)c3F)c1)C2 [Example 450]  128%
2. CC(C)(F)C(=O)N[C@H]1CC[C@@H](n2cnc(-c3ccc(OC(F)(F)F)cc3F)c2C#N)CC1 [Example 347]  130%
3. O=C(NC1CCCCC1)N1CCC(n2cc(-c3ccccc3)nc2Cl)CC1 [Example 116]  131%
4. Cc1nc(-c2ccccc2)cn1C1CCN(C(=O)NC2CCCCC2)CC1 [Example 114]  133%
5. O=C(NC1CCCCC1)N1CCC(n2cnc(-c3ccncc3)c2Cl)CC1 [Example 135]  154%
6. O=C(C1CCOCC1)N1CCC(n2cnc(-c3ccc(F)cc3)c2Cl)CC1 [Example 151]  155%
7. CC(C)(F)C(=O)N[C@H]1CC[C@@H](n2cnc(-c3ccc(OC(F)(F)F)cc3F)c2)CC1 [Example 303]  208%
8. O=C(NC1CCCCC1)N1CCC(n2cnc(-c3ccc(C(F)(F)F)cc3)c2)CC1 [Example 23]  209%
9. O=C(NC1CCCCC1)N1[C@@H]2CC[C@H]1C[C@@H](n1cnc(-c3ccc(F)cc3)c1)C2 [Example 382]  222%
10. O=C(N[C@H]1CC[C@@H](n2cnc(-c3ccccc3)c2Cl)CC1)C1(C(F)(F)F)CC1 [Example 174]  224%
11. N#Cc1c(-c2ccc(C(F)(F)F)cc2)ncn1C1CCN(C(=O)C2CCC(F)(F)CC2)CC1 [Example 157]  236%
12. O=C(NC1CCCCCC1)N1CCC(n2cnc(-c3cccc(F)c3)c2)CC1 [Example 45]  260%
13. N#Cc1c(-c2ccc(F)cc2F)ncn1C1CCN(C(=O)C2CCC(F)(F)CC2)CC1 [Example 271]  275%
14. O=C(NC1CCC(F)(F)CC1)N1CCC(n2cnc(-c3ccncc3)c2Cl)CC1 [Example 136]  309%
15. CC(C)(C)C(=O)N[C@H]1CC[C@@H](n2cnc(-c3ccc(Cl)cc3)c2Cl)CC1 [Example 322]  314%
16. CC(C)(F)C(=O)N[C@H]1CC[C@@H](n2cnc(-c3cc(F)cc(F)c3)c2)CC1 [Example 302]  325%
17. CC(C)(F)C(=O)N[C@H]1CC[C@@H](n2cnc(-c3cccc(F)c3F)c2C#N)CC1 [Example 339]  351%
18. N#Cc1c(-c2cccc(Cl)c2)ncn1C1CCN(C(=O)C2CCC(F)(F)CC2)CC1 [Example 160]  367%
19. O=C(NC1CCOCC1)N1CCC(n2cnc(-c3ccc(C(F)(F)F)c(F)c3)c2)CC1 [Example 251]  369%
20. O=C(NC1CCCCC1)N1CCC(n2cnc(-c3ccc(OC(F)F)cc3)c2)CC1 [Example 54]  371%
21. CC(C)(F)C(=O)N[C@H]1CC[C@@H](n2cnc(-c3ccc(Cl)cc3F)c2)CC1 [Example 283, N-{cis-4-[4-(4-chloro-2-fluorophenyl)-1H-imidazol-1-yl]cyclohexyl}-2-fluoro-2-methylpropanamide]  390%
22. CC(C)(F)C(=O)N[C@H]1CC[C@@H](n2cnc(-c3cccc(F)c3)c2Cl)CC1 [Example 175]  397%
23. N#Cc1c(-c2ccc(F)cc2)ncn1[C@@H]1C[C@H]2CC[C@@H](C1)N2C(=O)NC1CCCCC1 [Example 421]  426%
24. CCc1c(-c2ccccc2)ncn1C1CCN(C(=O)NC2CCCCC2)CC1 [Example 103]  452%
25. CC(C)(F)C(=O)N[C@H]1CC[C@@H](n2cnc(-c3ccccc3)c2Cl)CC1 [Example 172]  480%
26. O=C(N[C@H]1CC[C@H](C(F)(F)F)CC1)N1CCC(n2cnc(-c3cccc(F)c3)c2)CC1 [Example 3, 4-[4-(3-Fluorophenyl)-1H-imidazol-1-yl]-N-[trans-4-(trifluoromethyl)cyclohexyl]piperidine-1-carboxamide]  493%
27. CC(C)(F)C(=O)N[C@H]1CC[C@@H](n2cnc(-c3c(F)cccc3F)c2)CC1 [Example 315]  501%
28. O=C(C1CCC(F)(F)CC1)N1[C@@H]2CC[C@H]1C[C@@H](n1cnc(-c3ccccc3F)c1Cl)C2 [Example 434]  512%
29. O=C(N[C@H]1CC[C@@H](n2cnc(-c3ccccc3)c2Cl)CC1)C1CCCC1 [Example 170]  530%
30. N#Cc1c(-c2ccccc2)ncn1C1CCN(C(=O)C2CCCCC2)CC1 [Example 153]  538%
31. CC(C)(F)C(=O)N[C@H]1CC[C@@H](n2cnc(-c3ccccc3F)c2Cl)CC1 [Example 185]  576%
32. O=C(NC1CCOCC1)[C@H]1CC[C@@H](n2cnc(-c3cccc(F)c3)c2Cl)CC1 [Example 359]  581%
33. CC(C)(F)C(=O)N[C@H]1CC[C@@H](n2cnc(-c3c(F)cc(F)cc3F)c2)CC1 [Example 314]  591%
34. O=C(NC1CCCCC1)N1[C@@H]2CC[C@H]1C[C@@H](n1cnc(-c3ccccc3)c1)C2 [Example 383]  598%
35. N#Cc1c(-c2ccccc2)ncn1C1CCN(C(=O)C2CCC(F)(F)CC2)CC1 [Example 7, 1-{1-[(4,4-Difluorocyclohexyl)carbonyl]piperidin-4-yl}-4-phenyl-1H-imidazole-5-carbonitrile]  644%
36. O=C(NC1CCOCC1)N1CCC(n2cnc(-c3ccccc3F)c2Cl)CC1 [Example 252]  648%
37. CC(C)(F)C(=O)N[C@H]1CC[C@@H](n2cnc(-c3ccc(F)c(F)c3F)c2)CC1 [Example 312]  662%
38. O=C(NC1CCCC1)N1CCC(n2cnc(-c3cccc(F)c3)c2Cl)CC1 [Example 83]  671%
39. N#Cc1c(-c2ccc(Cl)cc2)ncn1C1CCN(C(=O)C2CCC(F)(F)CC2)CC1 [Example 159]  692%
40. N#Cc1c(-c2ccccc2)ncn1C1CCN(C(=O)C2CC(F)(F)C2)CC1 [Example 268]  725%
41. Cc1ccc(-c2cn(C3CCN(C(=O)NC4CCC(F)(F)CC4)CC3)cn2)s1 [Example 126]  780%
42. O=C(NC1COC1)[C@H]1CC[C@@H](n2cnc(-c3ccc(C(F)(F)F)cc3)c2Cl)CC1 [Example 361]  794%
43. O=C(NC1CCC(F)(F)CC1)N1CCC(n2cnc(-c3ccc(F)c(F)c3)c2)CC1 [Example 28]  798%
44. N#Cc1c(-c2ccccc2)ncn1[C@H]1CC[C@@H](NC(=O)C2CCC2)CC1 [Example 198]  799%
45. COc1ccc(-c2cn([C@H]3CC[C@@H](NC(=O)C(C)(C)F)CC3)cn2)cc1 [Example 285]  869%
46. O=C(NC1CCC(F)(F)CC1)N1CCC(n2cnc(-c3ccc4c(c3)CCO4)c2)CC1 [Example 44]  880%
47. O=C(C1CCC(F)(F)CC1)N1CCC(n2cnc(-c3ccccc3)c2Cl)CC1 [Example 152]  945%
48. N#Cc1c(-c2ccc(F)cc2)ncn1[C@H]1CC[C@@H](C(=O)NC2CCOCC2)CC1 [Example 373]  966%
49. O=C(NC1CCOCC1)N1CCC(n2cnc(-c3cccc(C(F)(F)F)c3)c2Cl)CC1 [Example 94, 4-{5-chloro-4-[3-(trifluoromethyl)phenyl]-1H-imidazol-1-yl}-N-(tetrahydro-2H-pyran-4-yl)piperidine-1-carboxamide]  981%
50. O=C(NC1CCC(F)(F)CC1)N1[C@@H]2CC[C@H]1C[C@H](n1cnc(-c3ccc(F)cc3F)c1Cl)C2 [Example 415]  997%

same assay, conditions: comparison across Tables 18 to 25

For `COc1cc(-c2cn(C3CCN(C(=O)NC4CCCCC4)CC3)cn2)ccc1Cl` [Example 72], the “PAM activity for α7 nAChR (in words)” value was “stronger PAM activity than others”.
In the case of `O=C(NC1CCOCC1)[C@H]1CC[C@@H](n2cnc(-c3cccc(Cl)c3)c2Cl)CC1` [Example 362], the “PAM activity for α7 nAChR (in words)” value is reported as “stronger PAM activity than others”.
For `O=C(NC1CCC(F)(F)CC1)N1CCC(n2cnc(-c3ccc(Cl)s3)c2)CC1` [Example 118], the “PAM activity for α7 nAChR (in words)” value was “stronger PAM activity than others”.
